Read-outs that look alike come from different tables or passages of the source.
Assays:
[1] = system: wild-type HIV-1 strain IIIB; assay: microbe, parasite or virus in culture; format: cell-based; set-up: scale not given here
mutant HIV-1 I84V/L90M = assay: Resistance Evaluation, I84V/L90M fold change; format: cell-based; set-up: scale not given here
[2] = target: T1, recombinant HIV-1 protease (Human immunodeficiency virus type 1 group M subtype B, UniProt P04585); assay: biochemical
T1 construct: Enzyme: recombinant HIV-1 protease expressed in E.Coli; purchased Bachem California, Inc. H-9040; host or cells: E. coli

[3] = Human immunodeficiency virus 1, IIIB
[4] = EC50 of mutant I84V/L90M relative to wild type, class symbols

Row | SMILES | EC50 [1, 3] [nM] | I84V/L90M fold change (mutant HIV-1 I84V/L90M; mutant I84V/L90M vs wild type) | other results
1 | COc1ccc(S(=O)(=O)N(CC(C)C)CC(O)C(CNc2ccc(CP(=O)(O)O)cc2)NC(=O)OC2COC3OCCC23)cc1 (stereo not drawn) | 500 to 5000 |  | I84V/L90M fold change (mutant HIV-1 I84V/L90M; [4]): + (>3 to ≦10)
2 | CCOP(=O)(CCN1CCN(CC(NC(=O)OC2COC3OCCC23)C(O)CN(CC(C)C)S(=O)(=O)c2ccc(OC)cc2)CC1)OCC (stereo not drawn) |  |  | Ki [2]: + +
3 | CCOC(=O)C(C)OP(=O)(CN1CC=C(CC(NC(=O)OC2COC3OCCC23)C(O)CN(CC(C)C)S(=O)(=O)c2ccc(OC)cc2)CC1)Oc1ccccc1 (stereo not drawn) |  | − (≦3) | EC50 (nM) [1]: + + +
4 | COc1ccc(S(=O)(=O)N(CCN2CCOCC2)CC(O)C(Cc2ccc(OCP(=O)(O)O)cc2)NC(=O)OC2COC3OCCC23)cc1 (stereo not drawn) | > 5000 | + (>3 to ≦10) | 
5 | Cc1cccc(C)c1OCC(=O)NC(Cc1ccc(OCP(=O)(O)O)cc1)C(O)CN(CC(C)C)S(=O)(=O)c1ccc(N)cc1 (stereo not drawn) | > 5000 | − (≦3) | 
6 | Cc1ccc(C(=O)NC(Cc2ccc(OCP(=O)(O)O)cc2)C(O)CN(CC(C)C)S(=O)(=O)c2ccc(N)cc2)cc1O (stereo not drawn) | > 5000 | + (>3 to ≦10) | 
7 | CC(C)CN(CC(O)C(Cc1ccc(OCP(=O)(O)O)cc1)NC(=O)OC1COC2OCCC12)S(=O)(=O)c1ccc(N)cc1 (stereo not drawn) | > 5000 | − (≦3) | 
8 | CCOP(=O)(COc1ccc(CC(NC(=O)OC2COC3OCCC23)C(O)CN(CC(C)C)S(=O)(=O)c2ccc(N)cc2)cc1)OCC (stereo not drawn) |  | − (≦3) | 
9 | CCNc1ccc(S(=O)(=O)N(CC(C)C)CC(O)C(Cc2ccc(OCP(=O)(OCC)OCC)cc2)NC(=O)OC2COC3OCCC23)cc1 (stereo not drawn) |  | − (≦3) | 
10 | CC(C)CN(CC(O)C(Cc1ccc(OCP(=O)(OCc2ccccc2)OCc2ccccc2)cc1)NC(=O)OC1COC2OCCC12)S(=O)(=O)c1ccc(N)cc1 (stereo not drawn) |  | − (≦3) | 
11 | CC(C)CN(CC(O)C(Cc1ccc(OCP(=O)(O)O)cc1)NC(=O)OC1COC2OCCC12)S(=O)(=O)c1cccc(N)c1 (stereo not drawn) | 500 to 5000 | − (≦3) | 
12 | CCOP(=O)(COc1ccc(CC(NC(=O)OC2COC3OCCC23)C(O)CN(CC(C)C)S(=O)(=O)c2cccc(N)c2)cc1)OCC (stereo not drawn) |  | − (≦3) | 
13 | CC(C)CN(CC(O)C(Cc1ccc(OCP(=O)(OCc2ccccc2)OCc2ccccc2)cc1)NC(=O)OC1COC2OCCC12)S(=O)(=O)c1cccc(N)c1 (stereo not drawn) |  | − (≦3) | 
14 | CC(C)CN(CC(O)C(Cc1ccc(OCP(=O)(OCc2ccccc2)OCc2ccccc2)cc1)NC(=O)OC1COC2OCCC12)S(=O)(=O)c1ccccc1 (stereo not drawn) |  | + (>3 to ≦10) | 
15 | CC(C)CN(CC(O)C(Cc1ccc(OCP(=O)(OCc2ccccc2)OCc2ccccc2)cc1)NC(=O)OC1COC2OCCC12)S(=O)(=O)c1ccc(F)cc1 (stereo not drawn) |  | + (>3 to ≦10) | 
16 | CC(C)CN(CC(O)C(Cc1ccc(OCP(=O)(OCc2ccccc2)OCc2ccccc2)cc1)NC(=O)OC1COC2OCCC12)S(=O)(=O)c1ccc(C(F)(F)F)cc1 (stereo not drawn) |  | − (≦3) | 
17 | CC(C)CN(CC(O)C(Cc1ccc(OCP(=O)(OCc2ccccc2)OCc2ccccc2)cc1)NC(=O)OC1COC2OCCC12)S(=O)(=O)c1ccc(C#N)cc1 (stereo not drawn) |  | − (≦3) | 
18 | Cc1ccc(C(=O)N[C@@H](Cc2ccc(OCP(=O)(OCc3ccccc3)OCc3ccccc3)cc2)[C@H](O)CN(CC(C)C)S(=O)(=O)c2ccc(N)cc2)cc1O |  |  | Ki (pM) [2]: + +
19 | CCCCOC(=O)C(C)OP(=O)(COc1ccc(C[C@H](NC(=O)O[C@H]2CO[C@H]3OCC[C@H]32)[C@H](O)CN(CC(C)C)S(=O)(=O)c2cccc(N)c2)cc1)Oc1ccccc1 (stereo partly drawn) |  | − (≦3) | EC50 (nM) [1]: + +
20 | CC(C)CN(CC(O)C(Cc1ccccc1)NC(=O)OC1COC2OCCC12)S(=O)(=O)c1ccc(O)cc1 (stereo not drawn) |  | − (≦3) | 
21 | CC(C)CN(CC(O)C(Cc1ccccc1)NC(=O)OC1COC2OCCC12)S(=O)(=O)c1ccc(OCP(=O)(O)O)cc1 (stereo not drawn) | 500 to 5000 | − (≦3) | 
22 | CC(C)CN(CC(O)C(Cc1ccccc1)NC(=O)OC1COC2OCCC12)S(=O)(=O)c1cccc(O)c1 (stereo not drawn) |  | + (>3 to ≦10) | 
23 | CC(C)CN(CC(O)C(Cc1ccccc1)NC(=O)OC1COC2OCCC12)S(=O)(=O)c1cccc(OCP(=O)(O)O)c1 (stereo not drawn) |  | + (>3 to ≦10) | 

Row | SMILES | EC50 [1, 3] [nM] | I84V/L90M fold change (mutant HIV-1 I84V/L90M; mutant I84V/L90M vs wild type) | other results
24 | COc1ccc(S(=O)(=O)N(CC(C)C)CC(O)C(Cc2ccccc2)NC(=O)OC2COC3OCCC23)cc1O (stereo not drawn) |  | − (≦3) | 
25 | COc1ccc(S(=O)(=O)N(CC(C)C)CC(O)C(Cc2ccccc2)NC(=O)OC2COC3OCCC23)cc1OCP(=O)(O)O (stereo not drawn) |  | − (≦3) | 
26 | CCOP(=O)(COc1cc(S(=O)(=O)N(CC(C)C)CC(O)C(Cc2ccccc2)NC(=O)OC2COC3OCCC23)ccc1OC)OCC (stereo not drawn) |  | + (>3 to ≦10) | 
27 | CCOP(=O)(COc1cc(S(=O)(=O)N(CC(C)C)CC(O)C(Cc2ccccc2)NC(=O)OC2COC3OCCC23)ccc1O)OCC (stereo not drawn) |  | − (≦3) | 
28 | CCOC(=O)C(C)NP(=O)(COc1ccc(CC(NC(=O)OC2COC3OCCC23)C(O)CN(CC(C)C)S(=O)(=O)c2ccc(OC)cc2)cc1)OCc1ccccc1 (stereo not drawn) [Example 30e] | < 50 |  | I84V/L90M fold change (mutant HIV-1 I84V/L90M; [4]): − (≦3)
29 | CCOP(=O)(COc1ccc(S(=O)(=O)N(CC(C)C)CC(O)C(Cc2ccc(N)cc2)NC(=O)OC2COC3OCCC23)cc1)OCC (stereo not drawn) [NH2, OEt] |  | ++ (>10 to ≦30) | EC50 ([1]; read-out: EC50): 50 to 500 nM
30 | CCOP(=O)(COc1ccc(S(=O)(=O)N(CC(C)C)CC(O)C(Cc2ccc(N(C)C)cc2)NC(=O)OC2COC3OCCC23)cc1)OCC (stereo not drawn) [NMe2, OEt] |  | ++ (>10 to ≦30) | EC50 ([1]; read-out: EC50): < 50 nM
31 | CC(C)CN(CC(O)C(Cc1ccc(O)cc1)NC(=O)OC1COC2OCCC12)S(=O)(=O)c1cccc(N)c1 (stereo not drawn) [OH, m-NH2] |  | − (≦3) | EC50 (nM) [1]: + +
32 | CC(C)CN(CC(O)C(Cc1ccc(O)cc1)NC(=O)OC1COC2OCCC12)S(=O)(=O)c1ccc(N)cc1 (stereo not drawn) [OH, p-NH2] |  | − (≦3) | EC50 (nM) [1]: + +
33 | COc1ccc(S(=O)(=O)N(CC(C)C)C[C@@H](O)[C@H](Cc2ccc(OCP(=O)(OCc3ccccc3)OCc3ccccc3)cc2)NC(=O)OC2CCOC2)cc1 (stereo partly drawn) [OMe, OBn] |  | + + | EC50 (nM) [1]: + + +
34 | COc1ccc(S(=O)(=O)N(CC(C)C)C[C@@H](O)[C@H](Cc2ccc(OCP(=O)(O)O)cc2)NC(=O)OC2CCOC2)cc1 (stereo partly drawn) [OMe, OH] |  | + + + | EC50 ([1]; read-out: EC50): > 5000 nM
35 | CCCCOC(=O)C(CC)NP(=O)(COc1ccc(CC(NC(=O)OC2COC3OCCC23)C(O)CN(CC(C)C)S(=O)(=O)c2ccc(OC)cc2)cc1)NC(CC)C(=O)OCCCC (stereo not drawn) [drawing 612 R1=Aba-Bu R2=Aba-Bu] | < 50 |  | I84V/L90M fold change (mutant HIV-1 I84V/L90M; [4]): + (>3 to ≦10)
36 | CCCCOC(=O)C(CC(C)C)NP(=O)(COc1ccc(CC(NC(=O)OC2COC3OCCC23)C(O)CN(CC(C)C)S(=O)(=O)c2ccc(OC)cc2)cc1)NC(CC(C)C)C(=O)OCCCC (stereo not drawn) [drawing 612 R1=Leu-Bu R2=Leu-Bu] | 50 to 500 |  | I84V/L90M fold change (mutant HIV-1 I84V/L90M; [4]): + (>3 to ≦10)
37 | CCNP(=O)(COc1ccc(CC(NC(=O)OC2COC3OCCC23)C(O)CN(CC(C)C)S(=O)(=O)c2ccc(OC)cc2)cc1)NCC (stereo not drawn) [drawing 612 R1=NHEt R2=NHEt] | 50 to 500 |  | I84V/L90M fold change (mutant HIV-1 I84V/L90M; [4]): − (≦3)
38 | CCOC(=O)C(NP(=O)(COc1ccc(CC(NC(=O)OC2COC3OCCC23)C(O)CN(CC(C)C)S(=O)(=O)c2ccc(OC)cc2)cc1)NC(C(=O)OCC)C(C)C)C(C)C (stereo not drawn) [drawing 612 R1=Val-Et R2=Val-Et] | < 50 |  | I84V/L90M fold change (mutant HIV-1 I84V/L90M; [4]): − (≦3)
39 | CCOC(=O)C(C)OP(=O)(COc1ccc(CC(NC(=O)OC2COC3OCCC23)C(O)CN(CC(C)C)S(=O)(=O)c2ccc(OC)cc2)cc1)OC(C)C(=O)OCC (stereo not drawn) [drawing 613 R1=Lac-Et R2=Lac-Et] | 50 to 500 |  | I84V/L90M fold change (mutant HIV-1 I84V/L90M; [4]): − (≦3)
40 | COc1ccc(S(=O)(=O)N(CC(C)C)CC(O)C(Cc2ccc(OCP(=O)(OC(C)C(=O)OC(C)C)OC(C)C(=O)OC(C)C)cc2)NC(=O)OC2COC3OCCC23)cc1 (stereo not drawn) [drawing 613 R1=Lac-iPr R2=Lac-iPr] | < 50 |  | I84V/L90M fold change (mutant HIV-1 I84V/L90M; [4]): − (≦3)
41 | COc1ccc(S(=O)(=O)N(CC(C)C)CC(O)C(Cc2ccc(OCP(=O)(O)OC(C)C(=O)O)cc2)NC(=O)OC2COC3OCCC23)cc1 [drawing 615 R1=OH R2=(R)Lac-OH] |  |  | I84V/L90M fold change (mutant HIV-1 I84V/L90M; [4]): − (≦3)
42 | COc1ccc(S(=O)(=O)N(CC(C)C)CC(O)C(Cc2ccc(OCP(=O)(O)OC(C)C(=O)O)cc2)NC(=O)OC2COC3OCCC23)cc1 (stereo not drawn) [drawing 615 R1=OH R2=Lac-OH] | 500 to 5000 |  | I84V/L90M fold change (mutant HIV-1 I84V/L90M; [4]): − (≦3)
43 | CCOP(=O)(CON=Cc1ccc(CC(NC(=O)OC2COC3OCCC23)C(O)CN(CC(C)C)S(=O)(=O)c2ccc(OC)cc2)cc1)OCC (stereo not drawn) [drawing 621 R1=Et R2=Et] |  |  | EC50 [1]: + + +; I84V/L90M fold change (mutant HIV-1 I84V/L90M; [4]): − (≦3)
44 | COc1ccc(S(=O)(=O)N(CC(C)C)CC(O)C(CC2=CCN(CCP(=O)(OCc3ccccc3)OCc3ccccc3)CC2)NC(=O)OC2COC3OCCC23)cc1 (stereo not drawn) [drawing 630] |  |  | I84V/L90M fold change (mutant HIV-1 I84V/L90M; [4]): + (>3 to ≦10)
45 | COc1ccc(S(=O)(=O)N(CC(C)C)CC(O)C(Cc2ccc(NCP(=O)(NC(C)C(=O)OC(C)C)Oc3ccccc3)cc2)NC(=O)OC2COC3OCCC23)cc1 (stereo not drawn) [drawing 660] |  |  | Ki ([2]; class symbols, Table 10): + +

Reference: patent US20040121316A1 (priority 2002, published 2004)
